We go through 5 molecules from PMC7419559 (Scientific Reports, 2020).

One test addresses T1, G9a (Homo sapiens, UniProt Q96KQ7).
T1 construct: purchased Sigma-Aldrich
T1 sequence (Q96KQ7 1-1210): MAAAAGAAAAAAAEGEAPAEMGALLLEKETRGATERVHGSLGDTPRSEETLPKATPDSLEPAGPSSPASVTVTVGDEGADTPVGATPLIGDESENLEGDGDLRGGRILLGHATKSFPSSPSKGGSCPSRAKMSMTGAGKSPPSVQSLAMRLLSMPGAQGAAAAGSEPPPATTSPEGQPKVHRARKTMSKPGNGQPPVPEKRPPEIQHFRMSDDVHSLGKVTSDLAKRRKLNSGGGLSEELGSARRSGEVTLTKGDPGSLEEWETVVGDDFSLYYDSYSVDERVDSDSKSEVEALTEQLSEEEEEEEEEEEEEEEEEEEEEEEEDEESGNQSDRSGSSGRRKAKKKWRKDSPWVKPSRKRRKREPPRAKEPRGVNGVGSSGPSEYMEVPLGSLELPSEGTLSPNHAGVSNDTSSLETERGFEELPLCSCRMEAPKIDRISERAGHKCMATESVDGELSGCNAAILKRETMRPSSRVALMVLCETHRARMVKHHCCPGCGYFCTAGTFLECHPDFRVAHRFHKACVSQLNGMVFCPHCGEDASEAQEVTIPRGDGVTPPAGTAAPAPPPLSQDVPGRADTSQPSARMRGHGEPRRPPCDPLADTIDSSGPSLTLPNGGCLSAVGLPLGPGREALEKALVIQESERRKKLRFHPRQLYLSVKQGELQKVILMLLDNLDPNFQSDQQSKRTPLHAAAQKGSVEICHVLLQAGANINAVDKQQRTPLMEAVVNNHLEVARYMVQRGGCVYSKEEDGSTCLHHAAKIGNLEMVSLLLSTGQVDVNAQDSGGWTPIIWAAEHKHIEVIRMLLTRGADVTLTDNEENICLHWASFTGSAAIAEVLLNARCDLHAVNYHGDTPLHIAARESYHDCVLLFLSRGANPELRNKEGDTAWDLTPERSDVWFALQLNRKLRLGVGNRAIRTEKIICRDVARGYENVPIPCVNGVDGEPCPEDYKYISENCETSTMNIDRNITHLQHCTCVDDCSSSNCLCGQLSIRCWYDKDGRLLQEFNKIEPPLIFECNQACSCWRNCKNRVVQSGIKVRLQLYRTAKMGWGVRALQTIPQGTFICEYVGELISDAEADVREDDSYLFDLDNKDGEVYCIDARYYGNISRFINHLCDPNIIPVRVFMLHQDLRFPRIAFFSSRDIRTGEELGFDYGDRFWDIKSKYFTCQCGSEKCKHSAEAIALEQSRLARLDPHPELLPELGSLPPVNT
The experiment in a line: AlphaLISA based G9a methyltransferase inhibition screening (H3K9 dimethylation). It counts as biochemical. Here is the method: Inhibition of G9a was examined in an AlphaLISA based format with protocols provided by PerkinElmer. In brief, compounds were incubated for 30 min on white 384-well microplates at the indicated concentration and with 5 nM G9a (Supplementary Information, Figure S1), 100 nM histone H3 (1–21) fragment and 15 µM SAM in assay buffer (50 mM Tris–HCl (pH = 9.0); 50 mM NaCl, 1 mM dithiothreitol, 0.01% Tween-20). Incubation was terminated by addition of anti-H3K9me2 acceptor beads in provided detection buffer. After incubating the mixture for 60 min, streptavidin-coated donor beads were added to the mix for additional 30 min. Luminescence was then measured using the AlphaLISA luminescence filter of an Infinite M1000pro multiplate reader (Tecan, Maennedorf, Switzerland) for 1,000 ms (integration time).
For experiments employing radiolabeled ligands, raw data that were measured as counts-per-minute [c.p.m.] were reduced by non-specific binding. For affinity measurements, such results were fitted to least-squares method “One site competition” of GraphPad Prism version 7.0 (La Jolla, CA, United States) and final values were calculated as means [95% confidence interval]. […] Data were stated as means ± s.d. […] Data were stated as means ± s.d. with the indicated number of replicates. For CRE-Luc assays, data were normalized to luminescence derived by forskolin containing samples (= 100%) and minimum luminescence measured in samples containing forskolin + N^α-methylhistamine (10 µM) (= 0%). Data from both experiments were globally fit to the “Gaddum/Schild EC50 shift” model of GraphPad Prism and were stated as means [95% confidence interval].
(Bead proximity is the source of the signal in Alpha formats.)

The target in test [1] is T2, rat isoform of H3R (rH3R) (Rattus norvegicus, UniProt Q9QYN8).
T2 construct: expressed in transfected cells; host or cells: HEK-293T
The experiment in a line: CRE-Luc reporter gene Schild assay at rH3R in HEK-293T cells. It counts as cell-based. As to the method: The mixture was incubated for 5 h under culture conditions. […] Lysed homogenate was transferred into white microplates. […] For experiments employing radiolabeled ligands, raw data that were measured as counts-per-minute [c.p.m.] were reduced by non-specific binding. […] Data were stated as means ± s.d. […] Data were stated as means ± s.d. with the indicated number of replicates.
In general terms: A reporter such as luciferase makes a cellular process visible.

The target in test [2] is T3, human isoform of histamine H3 receptor (hH3R) (Homo sapiens, UniProt Q9Y5N1).
T3 construct: expressed in transfected cells; host or cells: HEK-293T
Briefly: [3H]Nα-methylhistamine displacement at hH3R, membranes of transfected HEK-293T cells. It is filed as binding. Here is the method: NM_007232.3) was determined in radioligand displacement studies at membrane preparations of transfected HEK-293 T cells. […] The workflow to terminate incubation and measurement of bound radioligand was identical for both experimental set-ups. Briefly, samples were filtrated from microplates onto GF/B filters presoaked with 0.3% polyethyleneimine solution using a 96-well cell harvester. Filter mats were washed three times with water at 4 °C, dried for 60 min (54 °C), soaked with scintillation liquid (Betaplate Scint, PerkinElmer), sealed and subjected to scintillation counting. For experiments employing radiolabeled ligands, raw data that were measured as counts-per-minute [c.p.m.] were reduced by non-specific binding. For affinity measurements, such results were fitted to least-squares method “One site competition” of GraphPad Prism version 7.0 (La Jolla, CA, United States) and final values were calculated as means [95% confidence interval]. […] Data were stated as means ± s.d. […] Data were stated as means ± s.d. with the indicated number of replicates. […] Data from both experiments were globally fit to the “Gaddum/Schild EC50 shift” model of GraphPad Prism and were stated as means [95% confidence interval].

For another test, the target named is Spindlin1 (Homo sapiens, UniProt Q9Y657). The experiment in a line: Spindlin1 inhibition, fluorescence polarization displacement assay. It is filed as binding. To be noted: for Spindlin1 inhibition: fluorescence polarization-based screening. As to the method: Spindlin1 inhibition was determined using the fluorescence polarization displacement assay described by Wagner et al.[37] For the IC50 values, 12 concentrations were measured in triplicates.

SMILES strings stand for the structures. Like-named read-outs stand apart in the source and are kept apart here.

Chain of Spindlin1 (Q9Y657 whole entry, species assumed): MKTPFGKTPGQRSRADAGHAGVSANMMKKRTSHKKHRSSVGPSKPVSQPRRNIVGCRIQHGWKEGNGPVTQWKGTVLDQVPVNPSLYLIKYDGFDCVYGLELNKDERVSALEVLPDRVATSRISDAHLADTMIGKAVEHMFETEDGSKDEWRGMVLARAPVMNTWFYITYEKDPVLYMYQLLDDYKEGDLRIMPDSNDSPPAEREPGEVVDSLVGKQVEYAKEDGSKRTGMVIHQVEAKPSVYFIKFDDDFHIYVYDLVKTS
T3 sequence (Q9Y5N1 whole entry, canonical isoform): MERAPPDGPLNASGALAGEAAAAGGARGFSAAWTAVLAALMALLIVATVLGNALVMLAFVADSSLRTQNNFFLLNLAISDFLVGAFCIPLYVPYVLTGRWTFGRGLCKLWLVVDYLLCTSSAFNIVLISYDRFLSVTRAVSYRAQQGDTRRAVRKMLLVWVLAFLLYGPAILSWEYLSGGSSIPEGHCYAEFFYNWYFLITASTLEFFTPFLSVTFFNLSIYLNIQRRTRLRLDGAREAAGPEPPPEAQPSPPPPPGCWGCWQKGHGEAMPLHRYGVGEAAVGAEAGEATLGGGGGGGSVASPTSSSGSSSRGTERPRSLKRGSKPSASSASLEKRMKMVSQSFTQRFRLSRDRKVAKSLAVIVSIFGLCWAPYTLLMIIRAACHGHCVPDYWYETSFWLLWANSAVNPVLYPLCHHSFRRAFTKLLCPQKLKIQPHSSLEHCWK
T2 sequence (Q9QYN8 whole entry, canonical isoform): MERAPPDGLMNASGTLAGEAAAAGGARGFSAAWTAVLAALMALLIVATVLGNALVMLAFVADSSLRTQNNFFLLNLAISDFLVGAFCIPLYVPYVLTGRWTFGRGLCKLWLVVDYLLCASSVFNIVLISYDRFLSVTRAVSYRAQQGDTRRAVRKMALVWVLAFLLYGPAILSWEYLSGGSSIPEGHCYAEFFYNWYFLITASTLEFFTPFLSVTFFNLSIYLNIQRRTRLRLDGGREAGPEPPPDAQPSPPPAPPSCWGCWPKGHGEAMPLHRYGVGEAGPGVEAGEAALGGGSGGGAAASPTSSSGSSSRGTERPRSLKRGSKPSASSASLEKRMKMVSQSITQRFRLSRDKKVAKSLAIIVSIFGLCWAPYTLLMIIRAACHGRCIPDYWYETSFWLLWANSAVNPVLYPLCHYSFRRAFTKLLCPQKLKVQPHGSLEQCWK

For `COc1cc2c(cc1OCCCN1CCCC1)N=C(N)C21CCC1` [A-366], at G9a, 10 µM produced 100 ± 0.04% inhibition. This molecule also gave a Kb in test [1] of 0.015 µM. In test [1] (rH3R, mean ± 95% confidence interval, not significantly different from unity), this molecule registered a Schild-plot slope of 0.79 ± 0.45. In addition, the Ki (as a rule, a measure of affinity in units of concentration, obtained from inhibition or displacement) in test [2] ([3H]Nα-methylhistamine 2 nM, 90 min, mean [95% CI], read-out: hH3R affinity Ki [CI95%]) amounted to 0.017 µM.

Consider `O=C(c1ccc(OCCCc2cnc[nH]2)cc1)C1CC1` [Ciproxifan], for which the Spindlin1 inhibition entry at Spindlin1 is listed as “No inhibition”.

Regarding `Clc1ccc(CCCOCCCN2CCCCC2)cc1` [Pitolisant], the Spindlin1 inhibition entry on Spindlin1 is reported as “No inhibition”.

As for `COc1cc2c(NC3CCN(C(C)C)CC3)nc(N3CCC(F)(F)CC3)nc2cc1OCCCN1CCCC1` [UNC-0642], on Spindlin1 (fluorescence polarization, 12 concentrations in triplicates), the IC50 (usually the concentration at which inhibition is half-maximal) turned out to be 2.7 µM. Moreover, the inhibition – broadly, how much of the control response was suppressed – at 10 µM against G9a amounted to 99.9 ± 0.09%. Further, the affinity in test [2] corresponds to a Ki of 0.0018 µM.

In the case of `O=C(c1ccc(OCCCN2CCCCC2)cc1)C1CC1` [UCL-2190], the Spindlin1 inhibition result on Spindlin1 is “No inhibition”. Further, on G9a, the inhibition at 10 µM amounted to 13.9 ± 9.3%.
